Laboratory results reported in US4428950A, “(Hetarylphenoxy)-(phenylpiperazinyl)-propanols, their preparation and drugs containing these compounds” (BASF Aktiengesellschaft, priority 1981, dated 1984).
Structures can show the parent of a compound that is named as a salt. Where two headings read alike, the source gives them in different places.

How the values were obtained:
catalepsy = assay: Cataleptic action (front extremities on 8 cm high bar, rats); format: in vivo, rat (Sprague-Dawley, female); details: for ED50: ip, read-out: Cataleptic effect ED 50%; for Cataleptic effect R.A. (relative activity): chlorpromazine = 1.00; for effect in respect of catalepsy, % of that of chlorpromazine: relative to chlorpromazine
Protocol: 30, 60, 120 and 240 minutes after intraperitoneal administration of the substance, female Sprague-Dawley rats were placed with the front extremities on an 8 cm high bar. If, because of postural rigidity, the animals remain in this position for longer than 15 seconds, they are regarded as cataleptic.

[1] = test system: orientation hypermotility; assay: Sedative action (orientation hypermotility induced by a new environment, mice); format: in vivo, mouse (NMRI, female); details: for Sedative effect R.A. (relative activity): chlorpromazine = 1.00; for sedative-neuroleptic properties: according to Table 1; for effect in respect of sedation, % of that of chlorpromazine: relative to chlorpromazine
Protocol: The substance was administered orally to 4-8 groups each comprising 3 female NMRI mice. The orientation hypermotility induced by a new environment is determined photoelectrically, 30 minutes after administration of the substance, over a period of 30 minutes. The ED 50%, ie. the dose which produces a 50% reduction in orientation hypermotility compared to placebo-treated control animals, is determined.

blood pressure = assay: Hypotensive action (blood pressure in carotid artery of rats under urethane narcosis); format: in vivo, rat (Sprague-Dawley); details: for Hypotensive effect R.A. (relative activity): chlorpromazine = 1.00; for Hypotensive effect R.A. (relative activity) / Hypotensive effect ED 20% / ED20: rat; for ED20: read-out: Hypotensive effect ED 20%; for hypotensive action, doses compared with chlorpromazine / comparison with chlorpromazine, taking into account the hypotensive effect: in words; for quotient of the sedative effective dose and the hypotensive effective dose, times more advantageous than for chlorpromazine: relative to chlorpromazine
Protocol: The blood pressure was measured in the carotid artery. The substance was administered either by introduction into a jugular vein (as an aqueous solution, at the rate of 1 ml/kg) or intraperitoneally as a suspension in tragacanth (at the rate of 10 ml/kg). The ED 20%, ie. the dose which produces a 20% lowering of the blood pressure, was determined from the linear regression of log dose (mg/kg) and relative lowering of the blood pressure (Δ%).

histamine bronchospasm = assay: Broncholytic action (histamine-induced bronchospasm, guineapigs under urethane narcosis); format: in vivo, guineapig (Pirbright white); details: guineapig
Protocol: Male or female guineapigs (Pirbright white, weight 300-500 g) under urethane narcosis (1.5 g/kg administered intraperitoneally) are subjected to artificial respiration using a tracheal cannula. Bronchospasms are caused by intravenous injection of histamine dihydrochloride (1.0-4.64 μg/kg), and an antagonistic effect on these can be brought about by prior intravenous administration of the test substance. The spasms are recorded by the method of Konzett and Rossler (Naunyn Schmiedeberg's Arch. 195 (1940), 71), via inductive pressure sensors.

[2] = Table 2, sedative ED 50% vs hypotensive ED 20% i.p.
[3] = Table 2, sedative ED 50% vs hypotensive ED 20% i.v.
[4] = ip, Table 2, i.p., dose which reduces the blood pressure by 20%
[5] = iv, Table 2, i.v., dose which reduces the blood pressure by 20%
[6] = Table 2, mouse, oral, dose which reduces the motility by 50%, read-out: Sedative effect ED 50%
[7] = Table 1, rat, intraperitoneal, dose at which 50% of animals are cataleptic
[8] = Table 1, mouse, oral, dose producing 50% reduction in orientation hypermotility, read-out: Sedative effect ED 50%

CN(C)CCCN1c2ccccc2Sc2ccc(Cl)cc21 [chlorpromazine, reference compound]
ED50 (catalepsy; Rattus norvegicus): 4.3 mg/kg
Cataleptic effect R.A. (relative activity) (catalepsy; Table 1, rat, intraperitoneal): 1.0
Sedative effect R.A. (relative activity) ([1]; Table 1, mouse, oral): 1.0
Sedative effect ED 50% ([1]; Table 1, mouse, oral, dose producing 50% reduction in orientation hypermotility): 2.11
Sedative effect R.A. (relative activity) ([1]; Table 2, mouse, oral): 1.00
Hypotensive effect R.A. (relative activity) (blood pressure; Table 1, i.p.): 1.0
Hypotensive effect R.A. (relative activity) (blood pressure; Table 1, i.v.): 1.0
Q (quotient of the sedative effective dose and the hypotensive effective dose) (blood pressure; Table 1, hypotensive dose i.v.): 81.1
Hypotensive effect ED 20% (blood pressure; Table 1, i.p., dose producing 20% lowering of blood pressure): 0.164
Hypotensive effect ED 20% (blood pressure; Table 1, i.v., dose producing 20% lowering of blood pressure): 0.026
Hypotensive effect R.A. (relative activity) (blood pressure; Table 2, i.p.): 1.00
Hypotensive effect R.A. (relative activity) (blood pressure; Table 2, i.v.): 1.00
Q (blood pressure; [2]): 13
Q (blood pressure; [3]): 81
ED20 (blood pressure; [4]): 0.164 mg/kg
ED20 (blood pressure; [5]): 0.026 mg/kg

COc1ccccc1N1CCN(CC(O)COc2ccccc2-c2ccnc(N)n2)CC1 (stereo not drawn) [Example 5, 1-[2-(2-Aminopyrimidin-4-yl)-phenoxy]-3-[4-(2-methoxyphenyl)-piperazin-1-yl]-propan-2-ol]
doses at which sedative side-effect is observed relative to hypotensive doses ([1]; Table 2): 400-1,300 times greater
Sedative effect R.A. (relative activity) ([1]; Table 2, mouse, oral): 0.06
ED50 [1, 6]: 32.8 mg/kg
Hypotensive effect R.A. (relative activity) (blood pressure; Table 2, i.p.): 2.06
Q (blood pressure; [2]): 413
hypotensive action, doses compared with chlorpromazine (blood pressure; Table 2): at lower doses than chlorpromazine
ED20 (blood pressure; [4]): 0.0795 mg/kg

OC(COc1ccc(-n2cncn2)cc1)CN1CCN(c2ccc(F)cc2)CC1 (stereo not drawn) [Example 2, 1-[4-(1,2,4-Triazol-1-yl)-phenoxy]-3-[4-(4-fluorophenyl)-piperazin-1-yl]-propan-2-ol]
Cataleptic effect R.A. (relative activity) (catalepsy; Table 1, rat, intraperitoneal): 0.43
ED50 (catalepsy; [7]): 10 mg/kg
effect in respect of catalepsy, % of that of chlorpromazine (catalepsy): 43%
Sedative effect R.A. (relative activity) ([1]; Table 1, mouse, oral): 0.84
ED50 [1, 8]: 2.52 mg/kg
sedative-neuroleptic properties ([1]; in words): powerful sedative-neuroleptic properties
effect in respect of sedation, % of that of chlorpromazine [1]: 84%
Hypotensive effect R.A. (relative activity) (blood pressure; Table 1, i.v.): 0.08
Q (quotient of the sedative effective dose and the hypotensive effective dose) (blood pressure; Table 1, hypotensive dose i.v.): 8.0
comparison with chlorpromazine, taking into account the hypotensive effect (blood pressure): clearly superior to chlorpromazine
ED20 (blood pressure; iv, Table 1, i.v., dose producing 20% lowering of blood pressure): 0.316 mg/kg
quotient of the sedative effective dose and the hypotensive effective dose, times more advantageous than for chlorpromazine (blood pressure): 10 times

OC(COc1ccc(-n2ccnc2)cc1)CN1CCN(c2ccc(F)cc2)CC1 (stereo not drawn) [Example 3, 1-[4-(Imidazol-1-yl)-phenoxy]-3-[4-(4-fluorophenyl)-piperazin-1-yl]-propan-2-ol]
Cataleptic effect R.A. (relative activity) (catalepsy; Table 1, rat, intraperitoneal): 0.2
ED50 (catalepsy; [7]): 21.5 mg/kg
effect in respect of catalepsy, % of that of chlorpromazine (catalepsy): 20%
Sedative effect R.A. (relative activity) ([1]; Table 1, mouse, oral): 0.77
ED50 [1, 8]: 2.75 mg/kg
sedative-neuroleptic properties ([1]; in words): powerful sedative-neuroleptic properties
effect in respect of sedation, % of that of chlorpromazine [1]: 77%
Hypotensive effect R.A. (relative activity) (blood pressure; Table 1, i.p.): 0.02
Q (quotient of the sedative effective dose and the hypotensive effective dose) (blood pressure; Table 1, hypotensive dose i.p.): 0.3
comparison with chlorpromazine, taking into account the hypotensive effect (blood pressure): clearly superior to chlorpromazine
ED20 (blood pressure; ip, Table 1, i.p., dose producing 20% lowering of blood pressure): 10 mg/kg
quotient of the sedative effective dose and the hypotensive effective dose, times more advantageous than for chlorpromazine (blood pressure): 43 times

COc1cccc(N2CCN(CC(O)COc3ccc(-n4cncn4)cc3)CC2)c1 (stereo not drawn) [Example 1, 1-[4-(1,2,4-Triazol-1-yl)-phenoxy]-3-[4-(3-methoxyphenyl)-piperazin-1-yl]-propan-2-ol]
ED50 ([1]; Mus musculus, po, read-out: sedative effect ED 50%): 7.6 mg/kg
sedative action ([1]; in words): relatively slight sedative action
effect in respect of sedation, % of that of chlorpromazine [1]: 28%
inhibition of histamine bronchospasm (average) (histamine bronchospasm; 0.1 mg/kg intravenously): 87%
broncholytic effect on the histamine bronchospasm (histamine bronchospasm; in words): strong broncholytic effect

COc1ccccc1N1CCN(CC(O)COc2ccccc2-c2cc[nH]n2)CC1 (stereo not drawn) [Example 10, 1-[2-(Pyrazol-3-yl)-phenoxy]-3-[4-(2-methoxyphenyl)-piperazin-1-yl]-propan-2-ol.HCl]
doses at which sedative side-effect is observed relative to hypotensive doses ([1]; Table 2): 400-1,300 times greater
Sedative effect R.A. (relative activity) ([1]; Table 2, mouse, oral): 0.15
ED50 [1, 6]: 14.5 mg/kg
Hypotensive effect R.A. (relative activity) (blood pressure; Table 2, i.v.): 0.79
Q (blood pressure; [3]): 442
hypotensive action, doses compared with chlorpromazine (blood pressure; Table 2): at lower doses than chlorpromazine
ED20 (blood pressure; [5]): 0.0328 mg/kg

COc1ccccc1N1CCN(CC(O)COc2cccc(-c3cc[nH]n3)c2)CC1 (stereo not drawn) [Example 15, 1-[3-(Pyrazol-3-yl)-phenoxy]-3-[4-(2-methoxyphenyl)-piperazin-1-yl]-propan-2-ol.3HCl]
doses at which sedative side-effect is observed relative to hypotensive doses ([1]; Table 2): 400-1,300 times greater
Sedative effect R.A. (relative activity) ([1]; Table 2, mouse, oral): 0.08
ED50 [1, 6]: 25.1 mg/kg
Hypotensive effect R.A. (relative activity) (blood pressure; Table 2, i.v.): 1.39
Q (blood pressure; [3]): 1,342
hypotensive action, doses compared with chlorpromazine (blood pressure; Table 2): at lower doses than chlorpromazine
ED20 (blood pressure; [5]): 0.0187 mg/kg
